Experimental data reported in patent US20160136229A1, “MATERIALS FOR POSITIVE CATHEPSIN B MODULATION AND METHODS OF USE FOR TREATING MILD COGNITIVE IMPAIRMENT (MCI), EARLY DEMENTIA, A-SYNUCLEINOPATHY, TRAUMATIC BRAIN INJURY, CARDIOMYOPATHY, EYE DISEASE AND SKIN DAMAGE” (University of North Carolina at Pembroke, priority 2013, published 2016).

Legend:
[1] = test system: phosphorylated tau (pTau); experiment: pTau in Aβ42-treated rat hippocampal slice cultures (early tauopathy model); format: cell-based; conditions: 5 μM for 4 days
Procedure: FIG. 4. Enhancing lysosome efficiency with the cathepsin B modulator PADK leads to reductions of multiple types of proteinopathy-related accumulation events. […] Age-matched wild-type mice (wt) and 9-10-month mutant human APP mice, a model of early dementia, treated with or without PADK were assessed for the 4-kDa Δβ peptide, the active form of cathepsin B (act CB), and other proteins in hippocampal samples (C). Similar treatment groups used another APP mouse model at 20-22 months of age to measure clearance of APP carboxyterminal fragments APP-αCTF and APP-βCTF (D). Rat hippocampal slice cultures from the untreated control group (con) and slices treated with submicromolar Δβ42 (early tauopathy model) in the absence or presence of PADK (5 μM for 4 days) were assessed for phosphorylated tau (pTau) and other proteins (E). For a model of early α-synucleinopathy, human A53T α-synuclein transgenic mice, at 7 months old, were studied with or without PADK treatment and assessed for human α-synuclein (α-syn) in TX-100 extracts of hippocampus and for other proteins in hippocampal homogenates (F). Plotted data (±SEM) were compared to neighboring vehicle groups by unpaired t-tests: *p=0.02, **p<0.01, ***p<0.001. APPswind and APP-PS1 mice are described in Butler et al., (2011), the entire content of which is hereby incorporated herein by reference. […]

GluR1 = experiment: Immunoblot of postsynaptic marker GluR1 in hippocampal homogenates of Fischer rats; format: in vivo, rat; conditions: 27 mg/kg daily for 9 days; vs vehicle, p=0.0386
Procedure: FIG. 3. Lysosomal modulator PADK dramatically up-regulates active cathepsin B levels in middle-aged Fischer rats, a model of MCI. The female rats were injected daily with vehicle (veh) or 27 mg/kg PADK for 9 days. Brain regions were dissected, homogenates prepared, and equal protein aliquots were assessed by immunoblot to label the 30-kDa active form of cathepsin B as well as actin load controls (A). The hippocampal homogenate samples were also stained for the postsynaptic marker GluR1 to assess for synaptic recovery in correspondence to cathepsin B regulation (A, lower blots).
Brains were removed from the Fischer rats after the behavior studies in order to assess cathepsin B and synaptic marker levels. […] Cathepsin B immunoreactivity was increased 4- to 8-fold in hippocampal as well as neocortical homogenates, while non-lysosomal proteins remained unchanged (gel load controls). In addition to the correspondence with improved memory, there is evidence that the lysosomal modulation corresponds with synaptic recovery, assessing the postsynaptic marker GluR1 in hippocampus (FIG. 3A lower blots, and FIG. 3C). Without wishing to be bound by any scientific theory, the results support the hypothesis that lysosomal enhancement offsets the age-related cascade of microtubule destabilization, transport failure, synaptic decline, and cognitive impairment. […]

human α-synuclein = experiment: Human α-synuclein clearance in A53T transgenic mice; format: in vivo, mouse; conditions: i.p., 18 mg/kg/day, p=0.01 vs vehicle-treated A53T mice
Procedure: FIG. 4. Enhancing lysosome efficiency with the cathepsin B modulator PADK leads to reductions of multiple types of proteinopathy-related accumulation events. […] Age-matched wild-type mice (wt) and 9-10-month mutant human APP mice, a model of early dementia, treated with or without PADK were assessed for the 4-kDa Δβ peptide, the active form of cathepsin B (act CB), and other proteins in hippocampal samples (C). Similar treatment groups used another APP mouse model at 20-22 months of age to measure clearance of APP carboxyterminal fragments APP-αCTF and APP-βCTF (D). Rat hippocampal slice cultures from the untreated control group (con) and slices treated with submicromolar Δβ42 (early tauopathy model) in the absence or presence of PADK (5 μM for 4 days) were assessed for phosphorylated tau (pTau) and other proteins (E). For a model of early α-synucleinopathy, human A53T α-synuclein transgenic mice, at 7 months old, were studied with or without PADK treatment and assessed for human α-synuclein (α-syn) in TX-100 extracts of hippocampus and for other proteins in hippocampal homogenates (F). Plotted data (±SEM) were compared to neighboring vehicle groups by unpaired t-tests: *p=0.02, **p<0.01, ***p<0.001. APPswind and APP-PS1 mice are described in Butler et al., (2011), the entire content of which is hereby incorporated herein by reference.
FIG. 6. […]

C57BL/6 mice = experiment: Safety evaluation in PADK-injected C57BL/6 mice (synaptic markers, blood markers, behavior, organ histology); format: in vivo, mouse
Procedure: FIG. 11. Safety evaluation of PADK found no evidence of toxicity. […] Alanine aminotransferase (ALT) and blood urea nitrogen (BUN) measures in plasma were also unchanged (E), indicating no effect on major organs. […] Organ sections were H+E stained and tissue integrity was evaluated by a pathologist that was blinded to the treatment groups (G).
Additional safety evaluation tests with PADK were conducted. […] Blood markers were also unchanged, indicating no effect on major organs (FIG. 11E).

[2] = test system: human A53T α-synuclein transgenic mice; experiment: Open field test in A53T α-synuclein transgenic mice; format: in vivo, mouse; conditions: A53T mice 7-8 months; 18 mg/kg/day for 11 days
Procedure: FIG. 5. The cathepsin B modulator PADK also has a behavioral effect during early α-synucleinopathy. Vehicle-treated and PADK in the model of early α-synucleinopathy, human A53T α-synuclein transgenic mice, 7-8 months old, were injected with vehicle or PADK (18 mg/kg/day) for 11 days and their locomotor activity was measured in the open field test (OFT) for two days, center and perimeter crossings were measured. No difference in center crossings was found on day 1 as compared to wild-type mice (left graph), thus an indication of pre-symptomatic early stage Parkinson's disease (PD) before typical locomotor deficits. However, center crossings are often used as a measure of altered anxiety in PD mice. […] The altered anxiety in the vehicle-treated A53T mice appears to be a selective effect since perimeter crossings on day 2 were unchanged (right graph).

PHF-tau = conditions: cited from earlier work
bacterial = experiment: Bacterial cytotoxicity test; format: cell-based; conditions: tested at up to a 1000 times the IC50 of the toxin mitomycin C
[3] = C57BL/6 mice, ip daily for 9 days
[4] = low-level PADK, hippocampal slice model of protein accumulation

## C[C@H](NC(=O)[C@H](Cc1ccccc1)NC(=O)OCc1ccccc1)C(=O)C=[N+]=[N-] [PADK, N-carbobenzyloxy-L-phenylalanyl-L-alanyl-diazomethylketone]
[1]
  pTau accumulation: significant decrease
  synaptic protection: evidence of synaptic protection
GluR1
  GluR1 levels in hippocampus: increased
Human α-synuclein
  human α-synuclein levels: decrease
C57BL/6 mice; [3]
  Alanine aminotransferase (ALT) in plasma: unchanged
  blood urea nitrogen (BUN) in plasma: unchanged
  synaptic markers: unchanged
C57BL/6 mice; prior behavioral tests
  motor coordination rotarod test: no adverse effects
  spatial memory using conditioned place preference: no adverse effects
C57BL/6 mice; various organs
  organ tissue integrity (H+E stained sections, blinded pathologist): scored as normal
[2]
  center crossings on day 2 (altered anxiety): did not consistently exhibit such a positive trend
PHF-tau; following PADK-mediated tau clearance
  microtubule stability markers, transport function, and synaptic proteins: recovery
PHF-tau; [4]
  PHF-tau: attenuates
  synaptic decline: attenuates
PHF-tau; when CatB activity was increased with PADK
  tau aggregates and tau-related pathology: Reduction
bacterial
  bacterial cytotoxicity: did not cause bacterial cytotoxicity
